Data: ChEMBL document CHEMBL3880411, “Multikinase inhibitors for use in the treatment of cancer” (2009)
Active and inactive are the calls of the source. No cut-off for these calls is given here.

Legend:
[1] = molecular target: Tyrosine-protein kinase ABL1 (Homo sapiens) (UniProt P00519); experiment: Inhibition of human Abl assessed as remaining activity at 0.1 uM after 40 mins in presence of [gamma33P-ATP] by scintillation counting
[2] = molecular target: Tyrosine-protein kinase ABL1 (Homo sapiens) (UniProt P00519); experiment: Inhibition of human Abl assessed as remaining activity at 1 uM after 40 mins in presence of [gamma33P-ATP] by scintillation counting
[3] = molecular target: Proto-oncogene tyrosine-protein kinase Src (Homo sapiens) (UniProt P12931); experiment: Inhibition of human c-Src assessed as remaining activity at 0.1 uM after 40 mins in presence of [gamma33P-ATP] by scintillation counting
[4] = molecular target: Proto-oncogene tyrosine-protein kinase Src (Homo sapiens) (UniProt P12931); experiment: Inhibition of human c-Src assessed as remaining activity at 1 uM after 40 mins in presence of [gamma33P-ATP] by scintillation counting
[5] = molecular target: Receptor-type tyrosine-protein kinase FLT3 (Homo sapiens) (UniProt P36888); experiment: Inhibition of human Flt3 assessed as remaining activity at 1 uM after 40 mins in presence of [gamma33P-ATP] by scintillation counting
[6] = molecular target: Tyrosine-protein kinase Fyn (Homo sapiens) (UniProt P06241); experiment: Inhibition of human Fyn assessed as remaining activity at 0.1 uM after 40 mins in presence of [gamma33P-ATP] by scintillation counting
[7] = molecular target: Tyrosine-protein kinase Lck (Homo sapiens) (UniProt P06239); experiment: Inhibition of human Lck assessed as remaining activity at 0.1 uM after 40 mins in presence of [gamma33P-ATP] by scintillation counting
[8] = molecular target: Tyrosine-protein kinase Lyn (Homo sapiens) (UniProt P07948); experiment: Inhibition of human Lyn assessed as remaining activity at 0.1 uM after 40 mins in presence of [gamma33P-ATP] by scintillation counting
[9] = molecular target: Tyrosine-protein kinase Lyn (Homo sapiens) (UniProt P07948); experiment: Inhibition of human Lyn assessed as remaining activity at 1 uM after 40 mins in presence of [gamma33P-ATP] by scintillation counting
[10] = molecular target: BDNF/NT-3 growth factors receptor (Homo sapiens) (UniProt Q16620); experiment: Inhibition of human TrkB assessed as remaining activity at 0.1 uM after 40 mins in presence of [gamma33P-ATP] by scintillation counting
[11] = molecular target: BDNF/NT-3 growth factors receptor (Homo sapiens) (UniProt Q16620); experiment: Inhibition of human TrkB assessed as remaining activity at 1 uM after 40 mins in presence of [gamma33P-ATP] by scintillation counting
[12] = molecular target: Tyrosine-protein kinase Yes (Homo sapiens) (UniProt P07947); experiment: Inhibition of human Yes assessed as remaining activity at 0.1 uM after 40 mins in presence of [gamma33P-ATP] by scintillation counting
[13] = Cytotoxicity against human MDA-MB-231 cells expressing K-ras G13D mutant assessed as reduction in cell viability after 96 hrs by CellTiter-Glo luminescence assay or methylene blue assay; type: functional, cell-based; details: MDA-MB-231, 96 h
[14] = Cytotoxicity against human MDA-MB-435 cells expressing B-RAF V600E mutant assessed as reduction in cell viability after 96 hrs by CellTiter-Glo luminescence assay or methylene blue assay; type: functional, cell-based; details: MDA-MB-435, 96 h
[15] = Cytotoxicity against human DU4475 cells expressing B-RAF V600E mutant assessed as reduction in cell viability after 96 hrs by CellTiter-Glo luminescence assay or methylene blue assay; type: functional, cell-based; details: DU-4475, 96 h
[16] = Cytotoxicity against human DLD1 cells expressing K-ras G13D mutant assessed as reduction in cell viability after 96 hrs by CellTiter-Glo luminescence assay or methylene blue assay; type: functional, cell-based; details: DLD-1, 96 h
[17] = Cytotoxicity against human SK-MEL-2 cells expressing N-ras Q61R mutant assessed as reduction in cell viability after 96 hrs by CellTiter-Glo luminescence assay or methylene blue assay; type: functional, cell-based; details: SK-MEL-2, 96 h
[18] = Cytotoxicity against human SK-MEL-3 cells expressing B-RAF V600E mutant assessed as reduction in cell viability after 96 hrs by CellTiter-Glo luminescence assay or methylene blue assay; type: functional, cell-based; details: SK-MEL3, 96 h
[19] = Cytotoxicity against human SK-MEL-24 cells expressing B-RAF V600E mutant assessed as reduction in cell viability after 96 hrs by CellTiter-Glo luminescence assay or methylene blue assay; type: functional, cell-based; details: SK-MEL-24, 96 h
[20] = Cytotoxicity against human SW620 cells expressing K-ras G12V mutant assessed as reduction in cell viability after 96 hrs by CellTiter-Glo luminescence assay or methylene blue assay; type: functional, cell-based; details: SW-620, 96 h
[21] = Cytotoxicity against human COLO205 cells expressing B-RAF V600E mutant assessed as reduction in cell viability after 96 hrs by CellTiter-Glo luminescence assay or methylene blue assay; type: functional, cell-based; details: COLO 205, 96 h
[22] = Cytotoxicity against human HT-29 cells expressing B-RAF V600E mutant assessed as reduction in cell viability after 96 hrs by CellTiter-Glo luminescence assay or methylene blue assay; type: functional, cell-based; details: HT-29, 96 h
[23] = Cytotoxicity against human MIAPaCa2 cells expressing K-ras G12C mutant assessed as reduction in cell viability after 96 hrs by CellTiter-Glo luminescence assay or methylene blue assay; type: functional, cell-based; details: MIA PaCa-2, 96 h
[24] = Cytotoxicity against human PANC1 cells expressing K-ras G12D mutant assessed as reduction in cell viability after 96 hrs by CellTiter-Glo luminescence assay or methylene blue assay; type: functional, cell-based; details: PANC-1, 96 h
[25] = Cytotoxicity against human MES-SA cells assessed as reduction in cell viability after 96 hrs by CellTiter-Glo luminescence assay or methylene blue assay; type: functional, cell-based
[26] = Cytotoxicity against human MES-SA/Dx5-Rx1 cells assessed as reduction in cell viability after 96 hrs by CellTiter-Glo luminescence assay or methylene blue assay; type: functional, cell-based
[27] = Antiproliferative activity against human HL60 cells after 96 hrs by MTT assay; type: functional, cell-based; details: HL-60, 96 h
[28] = Antiproliferative activity against human THP1 cells after 96 hrs by MTT assay; type: functional, cell-based; details: THP-1, 96 h
[29] = Antiproliferative activity against human K562 cells after 96 hrs by MTT assay; type: functional, cell-based; details: K562, 96 h
[30] = Antiproliferative activity against human RPMI8226 cells after 96 hrs by MTT assay; type: functional, cell-based; details: RPMI-8226, 96 h
[31] = Antiproliferative activity against human RL cells after 96 hrs by MTT assay; type: functional, cell-based
[32] = Antiproliferative activity against human NALM6 cells after 96 hrs by MTT assay; type: functional, cell-based; details: NALM-6, 96 h
[33] = system: Receptor-type tyrosine-protein kinase FLT3 (Homo sapiens), P36888 [UNDEFINED MUTATION]; experiment: Inhibition of Flt-3 activation mutant phosphorylation in human MV4-11 cells after 24 hrs by Western blot analysis; type: cell-based
[34] = Antiproliferative activity against human MV4-11 cells expressing Flt-3 activation mutant after 96 hrs by CellTiter-Glo luminescence assay; type: functional, cell-based; details: MV4-11, 96 h
[35] = molecular target: Nuclear factor NF-kappa-B complex (Homo sapiens) (UniProt Q00653+P19838+Q04206); experiment: Inhibition of NFkappaB (unknown origin); type: protein-complex assay

Chain of Tyrosine-protein kinase Lyn (Homo sapiens) (P07948 2-512 limits assumed): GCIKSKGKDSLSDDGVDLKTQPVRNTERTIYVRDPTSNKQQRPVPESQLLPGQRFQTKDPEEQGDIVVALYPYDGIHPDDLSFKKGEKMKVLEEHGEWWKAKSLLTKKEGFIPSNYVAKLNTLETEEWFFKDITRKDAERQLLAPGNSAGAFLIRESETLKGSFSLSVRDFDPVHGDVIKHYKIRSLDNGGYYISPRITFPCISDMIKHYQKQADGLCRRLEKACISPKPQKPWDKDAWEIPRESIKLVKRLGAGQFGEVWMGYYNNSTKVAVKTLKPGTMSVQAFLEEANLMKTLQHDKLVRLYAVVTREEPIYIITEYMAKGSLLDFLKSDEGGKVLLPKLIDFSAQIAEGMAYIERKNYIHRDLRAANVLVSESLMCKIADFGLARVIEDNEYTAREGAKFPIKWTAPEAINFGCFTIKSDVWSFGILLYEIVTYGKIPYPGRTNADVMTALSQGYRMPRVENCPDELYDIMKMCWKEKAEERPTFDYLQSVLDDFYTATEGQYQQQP
Chain of Proto-oncogene tyrosine-protein kinase Src (Homo sapiens) (P12931 2-536 limits assumed): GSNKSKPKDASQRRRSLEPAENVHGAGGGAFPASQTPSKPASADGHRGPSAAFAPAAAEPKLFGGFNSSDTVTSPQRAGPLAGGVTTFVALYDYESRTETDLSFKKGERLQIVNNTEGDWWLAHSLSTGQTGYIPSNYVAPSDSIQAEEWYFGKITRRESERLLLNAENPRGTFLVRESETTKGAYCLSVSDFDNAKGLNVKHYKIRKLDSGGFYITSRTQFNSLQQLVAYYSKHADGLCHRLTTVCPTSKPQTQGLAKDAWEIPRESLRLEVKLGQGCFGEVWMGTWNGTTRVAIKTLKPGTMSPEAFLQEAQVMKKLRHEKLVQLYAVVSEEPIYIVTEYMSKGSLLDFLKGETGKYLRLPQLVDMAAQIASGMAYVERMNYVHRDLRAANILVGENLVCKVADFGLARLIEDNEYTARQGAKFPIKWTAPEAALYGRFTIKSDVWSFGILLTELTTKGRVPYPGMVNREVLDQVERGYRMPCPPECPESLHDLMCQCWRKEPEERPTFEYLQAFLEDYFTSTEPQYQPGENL
Chain of Tyrosine-protein kinase ABL1 (Homo sapiens) (P00519 whole entry): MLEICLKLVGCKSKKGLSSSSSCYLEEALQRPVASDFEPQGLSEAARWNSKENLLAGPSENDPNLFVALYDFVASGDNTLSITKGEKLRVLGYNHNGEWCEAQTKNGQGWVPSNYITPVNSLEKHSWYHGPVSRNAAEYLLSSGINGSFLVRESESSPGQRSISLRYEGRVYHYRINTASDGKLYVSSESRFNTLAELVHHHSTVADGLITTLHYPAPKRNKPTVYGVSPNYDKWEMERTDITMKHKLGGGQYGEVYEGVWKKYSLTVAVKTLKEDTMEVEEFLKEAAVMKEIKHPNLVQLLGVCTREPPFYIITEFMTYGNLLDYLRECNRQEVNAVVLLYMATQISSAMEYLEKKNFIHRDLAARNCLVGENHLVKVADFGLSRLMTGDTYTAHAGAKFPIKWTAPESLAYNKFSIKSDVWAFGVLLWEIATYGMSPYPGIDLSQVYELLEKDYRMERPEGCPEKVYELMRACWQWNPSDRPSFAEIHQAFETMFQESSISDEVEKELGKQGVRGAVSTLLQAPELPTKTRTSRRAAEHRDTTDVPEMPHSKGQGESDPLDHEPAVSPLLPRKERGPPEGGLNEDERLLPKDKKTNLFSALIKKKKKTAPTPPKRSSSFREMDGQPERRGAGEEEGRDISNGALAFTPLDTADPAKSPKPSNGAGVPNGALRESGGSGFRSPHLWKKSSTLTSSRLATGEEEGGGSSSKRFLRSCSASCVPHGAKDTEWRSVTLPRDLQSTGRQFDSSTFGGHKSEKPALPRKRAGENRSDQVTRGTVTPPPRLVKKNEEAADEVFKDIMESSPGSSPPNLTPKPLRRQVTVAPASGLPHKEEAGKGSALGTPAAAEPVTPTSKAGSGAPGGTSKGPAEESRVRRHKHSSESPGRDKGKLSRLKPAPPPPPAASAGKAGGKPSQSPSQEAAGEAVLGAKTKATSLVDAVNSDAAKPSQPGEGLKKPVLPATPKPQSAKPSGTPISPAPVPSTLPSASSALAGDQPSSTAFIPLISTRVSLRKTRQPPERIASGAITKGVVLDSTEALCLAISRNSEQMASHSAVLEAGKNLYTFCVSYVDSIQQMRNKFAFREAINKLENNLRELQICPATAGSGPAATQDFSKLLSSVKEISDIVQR
Chain of BDNF/NT-3 growth factors receptor (Homo sapiens) (Q16620 32-822 limits assumed): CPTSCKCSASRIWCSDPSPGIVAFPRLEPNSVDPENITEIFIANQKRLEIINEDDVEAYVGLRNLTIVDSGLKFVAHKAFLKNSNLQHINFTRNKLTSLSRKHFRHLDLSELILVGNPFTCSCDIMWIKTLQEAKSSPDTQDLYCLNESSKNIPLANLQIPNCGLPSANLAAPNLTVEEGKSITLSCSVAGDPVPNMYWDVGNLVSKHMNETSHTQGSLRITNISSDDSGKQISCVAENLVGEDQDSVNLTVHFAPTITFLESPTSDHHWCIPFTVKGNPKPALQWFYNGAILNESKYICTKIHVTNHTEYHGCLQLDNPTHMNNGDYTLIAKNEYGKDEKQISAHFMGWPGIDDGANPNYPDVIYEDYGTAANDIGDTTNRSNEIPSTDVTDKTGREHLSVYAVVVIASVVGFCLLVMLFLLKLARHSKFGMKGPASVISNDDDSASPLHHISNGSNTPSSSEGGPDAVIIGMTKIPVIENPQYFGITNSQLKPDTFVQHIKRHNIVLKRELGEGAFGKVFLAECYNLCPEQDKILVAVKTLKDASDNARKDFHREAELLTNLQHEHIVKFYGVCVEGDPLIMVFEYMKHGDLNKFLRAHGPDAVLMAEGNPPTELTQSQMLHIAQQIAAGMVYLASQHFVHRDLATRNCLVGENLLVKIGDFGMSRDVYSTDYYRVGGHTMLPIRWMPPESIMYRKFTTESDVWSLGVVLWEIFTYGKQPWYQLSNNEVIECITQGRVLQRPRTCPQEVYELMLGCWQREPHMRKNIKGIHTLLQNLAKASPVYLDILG
Chain of Receptor-type tyrosine-protein kinase FLT3 (Homo sapiens), P36888 [UNDEFINED MUTATION] (P36888 whole entry, looked up, stated change not applied): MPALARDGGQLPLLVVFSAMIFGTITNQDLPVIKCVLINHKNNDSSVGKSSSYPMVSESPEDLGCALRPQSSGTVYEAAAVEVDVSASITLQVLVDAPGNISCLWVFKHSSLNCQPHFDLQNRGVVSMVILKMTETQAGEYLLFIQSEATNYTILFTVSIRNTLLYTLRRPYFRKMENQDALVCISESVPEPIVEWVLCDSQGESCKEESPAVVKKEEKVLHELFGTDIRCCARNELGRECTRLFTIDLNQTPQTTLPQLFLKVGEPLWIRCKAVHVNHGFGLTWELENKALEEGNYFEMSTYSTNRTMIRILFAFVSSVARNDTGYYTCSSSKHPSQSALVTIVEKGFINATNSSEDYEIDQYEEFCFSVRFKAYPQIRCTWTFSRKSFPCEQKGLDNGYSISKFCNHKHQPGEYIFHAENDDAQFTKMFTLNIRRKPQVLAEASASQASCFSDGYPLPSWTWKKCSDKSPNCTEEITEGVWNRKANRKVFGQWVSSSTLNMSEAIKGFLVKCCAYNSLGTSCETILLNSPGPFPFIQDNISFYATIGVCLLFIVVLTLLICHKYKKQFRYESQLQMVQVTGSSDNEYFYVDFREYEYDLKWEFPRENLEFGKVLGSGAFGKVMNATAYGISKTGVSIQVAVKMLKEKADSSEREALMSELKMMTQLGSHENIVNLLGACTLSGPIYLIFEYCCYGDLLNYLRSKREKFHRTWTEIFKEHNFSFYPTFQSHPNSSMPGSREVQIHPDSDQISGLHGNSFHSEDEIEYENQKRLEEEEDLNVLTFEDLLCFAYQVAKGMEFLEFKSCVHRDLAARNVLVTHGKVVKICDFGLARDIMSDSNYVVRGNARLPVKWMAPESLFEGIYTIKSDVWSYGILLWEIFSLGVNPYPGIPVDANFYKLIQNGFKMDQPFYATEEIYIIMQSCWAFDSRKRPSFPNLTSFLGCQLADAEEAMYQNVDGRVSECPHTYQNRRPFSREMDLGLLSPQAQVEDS
Chain of Receptor-type tyrosine-protein kinase FLT3 (Homo sapiens) (P36888 whole entry): as the sequence (P36888 whole entry, looked up, stated change not applied) above
Chain of Tyrosine-protein kinase Yes (Homo sapiens) (P07947 2-543 limits assumed): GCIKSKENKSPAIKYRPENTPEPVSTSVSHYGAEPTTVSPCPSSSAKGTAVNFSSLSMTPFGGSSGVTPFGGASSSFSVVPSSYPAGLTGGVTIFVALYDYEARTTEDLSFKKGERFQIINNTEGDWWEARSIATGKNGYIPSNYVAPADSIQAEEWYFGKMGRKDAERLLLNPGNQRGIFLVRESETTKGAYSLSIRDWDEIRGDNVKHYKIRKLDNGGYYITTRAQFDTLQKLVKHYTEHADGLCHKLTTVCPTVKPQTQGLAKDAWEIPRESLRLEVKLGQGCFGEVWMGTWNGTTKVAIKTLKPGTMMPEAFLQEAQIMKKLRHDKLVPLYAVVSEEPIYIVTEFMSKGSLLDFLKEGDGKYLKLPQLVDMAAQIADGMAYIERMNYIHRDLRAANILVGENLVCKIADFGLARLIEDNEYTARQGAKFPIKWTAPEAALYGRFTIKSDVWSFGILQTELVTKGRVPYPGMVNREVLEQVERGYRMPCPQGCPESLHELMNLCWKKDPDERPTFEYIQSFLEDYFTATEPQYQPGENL
Chain of Tyrosine-protein kinase Lck (Homo sapiens) (P06239 2-509 limits assumed): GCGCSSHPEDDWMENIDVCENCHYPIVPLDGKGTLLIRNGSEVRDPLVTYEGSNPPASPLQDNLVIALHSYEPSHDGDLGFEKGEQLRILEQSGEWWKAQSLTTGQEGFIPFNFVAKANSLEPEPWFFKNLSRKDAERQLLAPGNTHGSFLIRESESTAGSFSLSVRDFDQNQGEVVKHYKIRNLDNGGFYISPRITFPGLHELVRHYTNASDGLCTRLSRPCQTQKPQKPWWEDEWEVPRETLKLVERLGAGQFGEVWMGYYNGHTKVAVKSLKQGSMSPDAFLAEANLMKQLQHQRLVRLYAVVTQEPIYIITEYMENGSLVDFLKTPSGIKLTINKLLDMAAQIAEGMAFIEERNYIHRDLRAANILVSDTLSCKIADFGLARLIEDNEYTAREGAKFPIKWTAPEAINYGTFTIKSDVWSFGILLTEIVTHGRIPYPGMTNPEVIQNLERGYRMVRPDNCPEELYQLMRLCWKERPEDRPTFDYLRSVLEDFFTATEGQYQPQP

Compound: CCNc1cc(O)c2c(c1)/C=C/C[C@H](O)[C@H](O)C(=O)/C=C\[C@@H](C)[C@H](C)OC2=O [E-6201]
- Activity [1]: 51%
- Activity [2]: 15%
- Activity [3]: 31%
- Activity [4]: 1%
- Activity [5]: 6%
- Activity [6]: 24%
- Activity [7]: 27%
- Activity [8]: 45%
- Activity [9]: 2%
- Activity [10]: 24%
- Activity [11]: 4%
- Activity [12]: 54%
- IC50 [13]: 156 nM
- IC50 [14]: 71 nM
- IC50 [15]: 52 nM
- IC50 [16]: 649 nM
- IC50 [17]: 135 nM
- IC50 [18]: 24 nM
- IC50 [19]: 66 nM
- IC50 [20]: 282 nM
- IC50 [21]: 43 nM
- IC50 [22]: 84 nM
- IC50 [23]: 734 nM
- IC50 [24]: > 10 µM
- IC50 [25]: 7.49 µM
- IC50 [26]: 1590 nM
- IC50 [27]: 60 nM
- IC50 [28]: 120 nM
- IC50 [29]: 1800 nM
- IC50 [30]: > 7.05 µM
- IC50 [31]: 1650 nM
- IC50 [32]: 620 nM
- inhibition [33]: Dose-dependent effect
- IC50 [34]: 8.2 nM
- inhibition [35]: Active
